Data on two compounds can be found in ChEMBL document CHEMBL4732190, “Identification of Potent and Long-Acting Single-Chain Peptide Mimetics of Human Relaxin-2 for Cardiovascular Diseases” (J Med Chem, 2021).

Series [1] has as its target T1, Relaxin receptor 1 (Rattus norvegicus) (UniProt Q6R6I6).
T1 sequence (whole entry): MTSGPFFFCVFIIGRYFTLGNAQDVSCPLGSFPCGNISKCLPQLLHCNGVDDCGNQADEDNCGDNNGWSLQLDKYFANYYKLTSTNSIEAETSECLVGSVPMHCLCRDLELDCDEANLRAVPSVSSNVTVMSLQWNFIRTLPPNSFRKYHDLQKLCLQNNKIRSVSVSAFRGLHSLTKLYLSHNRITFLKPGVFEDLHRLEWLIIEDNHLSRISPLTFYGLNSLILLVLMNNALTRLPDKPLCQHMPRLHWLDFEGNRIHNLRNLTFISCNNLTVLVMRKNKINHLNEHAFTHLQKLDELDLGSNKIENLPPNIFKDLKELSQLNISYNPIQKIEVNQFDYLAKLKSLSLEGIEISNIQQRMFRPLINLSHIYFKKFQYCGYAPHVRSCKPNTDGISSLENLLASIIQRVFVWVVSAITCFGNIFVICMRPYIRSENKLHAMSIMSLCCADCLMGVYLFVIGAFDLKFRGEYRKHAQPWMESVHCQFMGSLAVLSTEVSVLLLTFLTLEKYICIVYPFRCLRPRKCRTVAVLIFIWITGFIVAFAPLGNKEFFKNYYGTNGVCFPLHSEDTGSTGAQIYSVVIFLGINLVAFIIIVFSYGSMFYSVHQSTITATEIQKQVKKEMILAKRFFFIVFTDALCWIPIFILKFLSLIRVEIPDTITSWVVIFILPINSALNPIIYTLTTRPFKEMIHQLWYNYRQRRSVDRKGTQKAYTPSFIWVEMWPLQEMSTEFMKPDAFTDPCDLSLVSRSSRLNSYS
The experiment in a line: Selectivity index, ratio of EC50 for agonist activity at rat RXFP1 expressed in human […] cells in presence of RSA by HTRF assay to EC50 for EC50 for agonist activity at rat RXFP1 expressed in human […] cells in absence of RSA by HTRF assay. Conditions: HEK293, time 30.0 min. Type of series: cell-based.

The target of series [2] is T2, Relaxin receptor 1 (Rattus norvegicus, UniProt Q6R6I6).
T2 sequence (Q6R6I6 whole entry): T1 sequence (whole entry)
The experiment in a line: Agonist activity at rat RXFP1 expressed in human […] cells assessed as increase in IBMX-induced cAMP accumulation pretreated with IBMX for 40 mins followed by compound addition and measured after 30 mins by HTRF assay. It is filed as cell-based, HEK293.

Series [3] addresses T3, Relaxin receptor 1 (Homo sapiens) (UniProt Q9HBX9).
T3 sequence (whole entry): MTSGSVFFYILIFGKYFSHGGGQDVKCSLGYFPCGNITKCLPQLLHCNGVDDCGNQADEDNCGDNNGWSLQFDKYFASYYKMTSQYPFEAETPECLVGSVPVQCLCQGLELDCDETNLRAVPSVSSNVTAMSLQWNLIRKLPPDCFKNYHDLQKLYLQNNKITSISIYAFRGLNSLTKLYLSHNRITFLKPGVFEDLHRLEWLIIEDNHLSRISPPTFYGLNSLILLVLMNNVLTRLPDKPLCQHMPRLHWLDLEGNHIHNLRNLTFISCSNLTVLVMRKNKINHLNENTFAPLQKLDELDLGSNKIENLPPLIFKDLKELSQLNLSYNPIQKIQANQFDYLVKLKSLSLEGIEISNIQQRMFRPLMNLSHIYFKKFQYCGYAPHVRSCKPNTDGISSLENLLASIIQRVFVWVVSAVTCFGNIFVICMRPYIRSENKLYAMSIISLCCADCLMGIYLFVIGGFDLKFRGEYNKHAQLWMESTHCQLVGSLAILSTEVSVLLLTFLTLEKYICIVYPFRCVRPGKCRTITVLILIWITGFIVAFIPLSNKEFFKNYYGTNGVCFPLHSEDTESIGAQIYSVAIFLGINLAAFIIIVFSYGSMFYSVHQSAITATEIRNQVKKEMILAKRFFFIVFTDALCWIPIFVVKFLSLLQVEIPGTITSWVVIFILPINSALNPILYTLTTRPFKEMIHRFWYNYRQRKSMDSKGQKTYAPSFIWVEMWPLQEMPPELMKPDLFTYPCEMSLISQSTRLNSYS
Nature of the series: Selectivity ratio of EC50 for agonist activity at RXFP1 endogenously expressed in human OVCAR-5 cells in presence of 2 % HSA to EC50 for agonist activity at RXFP1 endogenously expressed in human OVCAR-5 cells in absence of HSA. It is filed as cell-based.

Series [4] has as its target T3, Relaxin receptor 1 (Homo sapiens). The experiment in a line: Agonist activity at RXFP1 endogenously expressed in human OVCAR-5 cells assessed as increase in IBMX-induced cAMP accumulation pretreated with IBMX for 40 mins followed by compound addition and measured after 30 mins in presence of 2 % HSA by HTRF assay relative to control. It is filed as functional, cell-based. Conditions: filed as agonist.

Series [5] can be described thus: Positive chronotropic activity in pithed Sprague-Dawley rat assessed as increase in heart rate at 1000 mg/kg, iv administered as bolus dose measured after 60 mins post dose. Type of series: ADME, organism-based. Conditions: in vivo, 1 h.
Series [6] addresses T3, Relaxin receptor 1 (Homo sapiens). The experiment in a line: Agonist activity at RXFP1 endogenously expressed in human OVCAR-5 cells assessed as increase in IBMX-induced cAMP accumulation pretreated with IBMX for 40 mins followed by compound addition and measured after 30 mins by HTRF assay relative to relaxin. It is filed as functional, cell-based. The following applies: filed as agonist.

A short description of series [7]: Positive chronotropic activity in pithed Sprague-Dawley rat assessed as increase in heart rate at 20 to 1000 mg/kg, iv administered as bolus dose measured after 60 mins post dose. Type of series: ADME, organism-based. The following applies: in vivo, 1 h, dose 20-1000 mg/kg.
In series [8] the target is T4, Relaxin receptor 1 (Homo sapiens, UniProt Q9HBX9).
T4 sequence (Q9HBX9 whole entry): T3 sequence (whole entry)
The experiment in a line: Agonist activity at RXFP1 endogenously expressed in human OVCAR-5 cells assessed as increase in IBMX-induced cAMP accumulation pretreated with IBMX for 40 mins followed by compound addition and measured after 30 mins by HTRF assay. It is filed as functional, cell-based.

Series [9] in a line: Half life in Sprague-Dawley rat at 1 mg/kg, iv measured upto 72 hrs by LC-HRMS analysis. Type of series: ADME, organism-based. Conditions: in vivo.
For series [10], the target named is T4, Relaxin receptor 1. Nature of the series: Agonist activity at RXFP1 endogenously expressed in human OVCAR-5 cells assessed as increase in IBMX-induced cAMP accumulation pretreated with IBMX for 40 mins followed by compound addition and measured after 30 mins in presence of 2 % HSA by HTRF assay. It is filed as functional, cell-based.
Series [11] addresses T1, Relaxin receptor 1 (Rattus norvegicus). Nature of the series: Agonist activity at rat RXFP1 expressed in human […] cells assessed as increase in IBMX-induced cAMP accumulation pretreated with IBMX for 40 mins followed by compound addition and measured after 30 mins by HTRF assay relative to control. Type of series: cell-based. The following applies: HEK293, filed as agonist.

Series [12] is described as follows: Positive chronotropic activity in pithed Sprague-Dawley rat assessed as increase in heart rate at 300 microg/kg, iv administered as bolus dose recorded over 60 mins relative to control. It is filed as ADME, organism-based. Conditions: in vivo, 0.3 mg/kg, 1 h, dose 300 µg/kg.
A short description of series [13]: Stability in rat plasma assessed as parent compound remaining level at 5 uM remaining after 4 hrs. Type of series: ADME, cell-free. The following applies: read-out: Stabilty.
Series [14] in a line: Aqueous solubility of compound in acetate buffer at pH 4.5 measured after 24 hrs by UPLC analysis. Type of series: physicochemical.
Series [15] is described as follows: Aqueous solubility of compound in phosphate buffer at pH 7.4 measured after 24 hrs by UPLC analysis. It is filed as physicochemical.
Series [16] in a line: Stability in human plasma assessed as parent compound remaining level at 5 uM remaining after 4 hrs. It is filed as ADME, cell-free. The following applies: read-out: Stabilty.

SMILES strings stand for the structures. pEC50: −log10 of the molar value. ≈ marks a conversion by molar mass, not a printed value. *1 amine or outer side, *2 acyl side, *3 side chain or, on linkers, in order; H or OH if unused. Where a SMILES comes first, the peptide text is derived from it. [ ]: non-standard residue; d: D form. The star is where a group is joined. PEG11 = NCCOCCOCCOCCOCCOCCOCCOCCOCCOCCOCCOCCC(=O)O; X1 = CCCCCCCCCCCCCCCCC(=O)[C@H](CCC(N)=O)N*; β2hAla(2S) = C[C@@H](CN[*:1])C(=O)[*:2]; Nle = CCCC[C@H](N)C(=O)O

Regarding `CCCCCCCCCCCCCCCCC(=O)[C@H](CCC(N)=O)NC(=O)[C@H](CCC(=O)O)NC(=O)[C@H](CCC(=O)O)NC(=O)[C@H](CCCCN)NC(=O)CCOCCOCCOCCOCCOCCOCCOCCOCCOCCOCCOCCNC(=O)[C@H](CCCCN)NC(=O)[C@H](CCCNC(=N)N)NC(=O)[C@@H](C)CNC(=O)[C@H](CO)NC(=O)[C@H](Cc1c[nH]c2ccccc12)NC(=O)[C@@H](NC(=O)[C@H](CO)NC(=O)[C@H](CCSC)NC(=O)CNC(=O)[C@H](CCC(=O)O)NC(=O)[C@@H](C)CNC(=O)[C@@H](C)CNC(=O)[C@@H](NC(=O)[C@H](CCC(N)=O)NC(=O)[C@H](C)NC(=O)[C@H](CCCNC(=N)N)NC(=O)[C@@H](NC(=O)[C@H](CCCCN)NC(=O)[C@H](CCC(=O)O)NC(=O)[C@H](CCCNC(=N)N)NC(=O)[C@H](CCC(=O)O)NC(=O)CNC(=O)[C@H](CCC(=O)O)NC(=O)[C@H](CC(C)C)NC(C)=O)C(C)C)[C@@H](C)CC)[C@@H](C)O` (Ac-LEGEREKVRAQI[β2hAla(2S)][β2hAla(2S)]EGMSTWS[β2hAla(2S)]RK[PEG11]KEE-X1), the Ratio EC50 in series [1] worked out at 33; in series [3], 75. For the same compound, the negative-log EC50 (pEC50) was 9.05 on Relaxin receptor 1 [2], 8.44 on Relaxin receptor 1 [8] and 6.57 at Relaxin receptor 1 [10]. Moreover, the maximal effect (Emax) in series [4] came to 88%; in series [6], 88%; in series [11], 79%. Further, the Emin in series [5] turned out to be 30%. Besides, in series [7], the Activity result is “Dose-dependent effect”. The half-life in [9] was 8.9 h.
On to `CCCC[C@H](NC(=O)CNC(=O)[C@H](CCC(=O)O)NC(=O)[C@@H](C)CNC(=O)[C@@H](C)CNC(=O)[C@@H](NC(=O)[C@H](CCC(N)=O)NC(=O)[C@H](C)NC(=O)[C@H](CCCNC(=N)N)NC(=O)[C@@H](NC(=O)[C@H](CCCCN)NC(=O)[C@H](CCC(=O)O)NC(=O)[C@H](CCCNC(=N)N)NC(=O)CNC(=O)[C@H](CCC(=O)O)NC(=O)[C@H](CC(C)C)NC(C)=O)C(C)C)[C@@H](C)CC)C(=O)N[C@@H](CO)C(=O)N[C@H](C(=O)N[C@@H](Cc1c[nH]c2ccccc12)C(=O)N[C@@H](CO)C(=O)NC[C@H](C)C(=O)N[C@@H](CCCNC(=N)N)C(=O)N[C@@H](CCCCN)C(=O)N[C@@H](CCCCN)C(N)=O)[C@@H](C)O` (Ac-LEGREKVRAQI[β2hAla(2S)][β2hAla(2S)]EG[Nle]STWS[β2hAla(2S)]RKK-NH2), for which the negative-log EC50 (pEC50) at Relaxin receptor 1 [2] was 8.28; on Relaxin receptor 1 [8], 7.92. The Activity in [12] worked out at 40%. Further, the Emin in series [5] stood at 43%. Besides, the remaining at 4 h, 5 µM came out at 55% in [13] and 64% in [16]. Further, the solubility at 24 h in series [14] came out at 3300 µg/mL (≈ 1190 µM); in series [15], 2900 µg/mL (≈ 1050 µM). In addition, the Emax amounted to 99% in series [6] and 83% in series [11]. For the same compound, the half-life in series [9] was 0.32 h.
